Common to all, as to assay type: in vivo
Data set [1] relates to kidney sympathetic nervous activity. Nature of the data set: Rat kidney sympathetic nervous activity after transduodenal administration. Particulars: urethane-anesthetized male rat, transduodenal 10 μg/2 ml per animal, vs physiological saline control; FIG. 3. The method, then:
(§1) In these experiments, use was made of male Mister rats weighing about 300 g which had been fed in a thermostatic chamber (24° C.) with a light-dark cycle of 12-hour intervals (under illumination from 8:00 to 20:00) for 1 week or longer. A single rat was employed for each nervous experiment. The animals were fed with a feed (Oriental Yeast, MF) and water ad libitum. The autonomic nervous activity were examined by fasting the rats for 3 hours on the day of the experiment and then subjecting to an abdominal surgery under urethane-anesthesia at the intermediate point of the light period. Then, the effects of the transduodenal administration of 2,3-dihydro-3,5-dihydroxy-6-methyl-4H-pyran-4-one obtained in Example 1 on the kidney sympathetic nervous activity, stomach vagal (parasympathetic) nervous activity and blood pressure were measured in accordance with the method reported by T. Yamano et al., Neurosci. […] A cannula was inserted into the left femoral artery and then the blood pressure was measured by use of a transducer. […] Electrical nervous activity thus obtained were amplified with a condenser type differential amplifier, monitored with an oscilloscope and recorded on a magnetic tape. […] The data was analyzed based on the average discharge frequency per 5 seconds (pulse/5 sec) and expressed as a percentage by referring to the level before the administration as to 100%. […]

Data set [2] can be described thus: Rat blood pressure after transduodenal administration (left femoral artery cannula, transducer). The note with it: urethane-anesthetized male rat, transduodenal 10 μg/2 ml per animal, vs physiological saline control; FIG. 4. The method, then:
as §1

Data set [3] deals with stomach vagal (parasympathetic) nervous activity. Put plainly: Rat stomach vagal (parasympathetic) nervous activity after transduodenal administration. Particulars: urethane-anesthetized male rat, transduodenal 10 μg/2 ml per animal, vs physiological saline control; FIG. 5. The method, then: as §1
Data set [4] has as its system interscapular brown adipose tissue sympathetic nervous activity. Nature of the data set: Rat interscapular brown adipose tissue sympathetic nervous activity after transduodenal administration. Particulars: transduodenal administration 10 μg, single rat, FIG. 6.
Data set [5] deals with epididymal white adipose tissue sympathetic nervous activity. Nature of the data set: Rat epididymal white adipose tissue sympathetic nervous activity after transduodenal administration. The note with it: transduodenal administration 10 μg, single rat, FIG. 7.
Data set [6] is described as follows: Rat oxygen consumption (energy metabolism) after forced oral administration. The note with it: male SD rats fasted 16 hours, 40 μg/8 ml/kg body weight forced oral, within 60 minutes after administration, 5 rats per group; FIG. 8. As for the experimental part:
Male SD rats aged 7 weeks were preliminarily fed with a solid feed (CE-2: NIPPON CREA) and water ad libitum for 1 week for the habituation to the light-dark cycle of 12-hour intervals. The thus habituated animals were fasted for 16 hours before the administration of the samples and then divided into two groups. Then, 40 μg/8 ml/kg body weight of DDMP and 8 ml/kg body weight of distilled water for injection were forcibly orally administered into the stomach to the respective groups. Within 60 minutes following the administration, oxygen consumption was measured with a metabolic meter for small animals (MK-5000RQ2: manufactured by MUROMACHI KIKAI Co., Ltd.). A combination of a DDMP-administered rat with a water-administered rat was referred to as a single experimental lot and the averages of five combinations (i.e., a DDMP-administered group having 5 rats and a water-administered group having 5 rats) were calculated.

In the case of `CC1=C(O)C(=O)C(O)CO1` (stereo not drawn) [DDMP, 2,3-Dihydro-3,5-dihydroxy-6-methyl-4H-pyran-4-one], the “kidney sympathetic nervous activity (discharge frequency vs level before administration)” value in data set [1] is reported as “enhanced”. In addition, the blood pressure result in data set [2] is listed as “not elevated”. Moreover, in data set [3], the “stomach vagal (parasympathetic) nervous activity” value was “reduced”. Besides, the “interscapular brown adipose tissue sympathetic nervous activity” value in data set [4] was “enhanced”. Besides, the “epididymal white adipose tissue sympathetic nervous activity” value in data set [5] is “enhanced”. Moreover, the “oxygen consumption compared with the water-administered group” value in data set [6] is on record as “increase in oxygen consumption”.

Source of the values: US20100150890A1, “MEDICINAL COMPOSITION, FOOD OR DRINK HAVING EFFECT OF ENHANCING SYMPATHETIC NERVOUS ACTIVITY” (SUNTORY HOLDINGS LIMITED, priority 2005, published 2010).
